In one data set the test system is HepG-2. In words: MTT anticancer activity, HepG-2. Particulars: for IC50: Homo sapiens, HepG2, HepG-2, 72 h, MTT, mean ± SEM; for SI: ratio IC50 on normal cells (Wi-38) / IC50 on HepG-2. Type of data set: cell-based, human. An excerpt: (§1) All derivatives were subjected to preliminary cytotoxicity screening on normal human lung fibroblasts (Wi-38) for selectivity assessment, followed by anticancer evaluation against MDA-MB231, Caco-2, and HepG-2 cells compared to the reference multitarget chemotherapeutic agent doxorubicin (Dox) by MTT assay. It is worth mentioning that previous studies reported that Dox inhibits the VEGF pathway which is the main anticancer target of the current study via various mechanisms.
(§2) The compounds’ cytotoxicity on normal and cancer cells was assayed by MTT as reported and detailed in the Supplementary Materials. […]
(§3) 2.1. Cytotoxicity screening on normal human lung fibroblasts (Wi-38)
(§4) The normal human lung fibroblast Wi-38 cell line was used to detect cytotoxicity of the studied compounds. Wi-38 cell line was cultured in DMEM medium-contained 10 % fetal bovine serum (FBS), seeded as 5x10^3 cells per well in 96-well cell culture plate, and incubated at 37 °C in 5 % CO2 incubator. After 24 h for cell attachment, serial concentrations (25-800 nM) of the synthetic compounds and currently used chemotherapy (doxorubicin) were incubated with Wi-38 cells for 72 h. Cell viability was assayed by the MTT method. Twenty microliters of 5 mg/ml MTT (Sigma, USA) were added to each well and the plate was incubated at 37 °C for 3 h. Then MTT solution was removed, 100 µl DMSO was added and the absorbance of each well was measured with a microplate reader (BMG LabTech, Germany) at 570 nm. Plot of Wi-38 cell […]
(§5) compounds (8 and 9) and the reference chemotherapy (Dox) is illustrated in figure 39-A. The effective […]
(§6) was estimated by the Graphpad Instat software. Additionally, morphology of Wi-38 before and after […]
(§7) microscope with a digital camera (Olympus, Japan).
(§8) 2.2. Determination of the anticancer activity
The anticancer effect of the above-mentioned compounds, in comparison with doxorubicin (Dox), was assayed using three human cancer cell lines. Colon cancer cell line (Caco-2) was cultured in DMEM (Lonza, USA) contained with 10 % FBS while liver cancer cell line (HepG-2) and triple-negative breast cancer cell line (MDA- MB 231) were cultured in RPMI-1640 (Lonza, U SA) supplemented with 10 % FBS. […]
compounds were incubated with three cancer cell lines for 72 h at 37 °C in a 5 % CO2 incubator. MTT method was done as described above. Plots of cancer cells viability (%) and growth inhibition (%) of the studied […]
(§9) illustrated in figure 39. […]
(§10) The half-maximal inhibitory concentration (IC50) values were calculated using the Graphpad Instat […]
(§11) safest anticancer compounds were investigated using phase-contrast inverted microscope with a digital […]
(§12) ratio of IC50 value of normal cells to IC50 value of each studied cancer cell lines.
(§13) Figure S40. Plot of (A) Wi-38 cell viability (%) and (B-D) growth inhibition (%) of cancer cell lines with […]

In data set [1] the test system is normal human lung fibroblasts (Wi-38). In words: MTT cytotoxicity screening on normal human lung fibroblasts (Wi-38). Type of data set: cell-based. Particulars: for IC50: Homo sapiens; for IC50 / EC100: Wi-38, 72 h, MTT, mean ± SEM; for EC100: concentration at 100% cell viability.
Text: as §1, §2, §3, §4, §5, §6
microscope with a digital camera (Olympus, Japan). […]

The subject of the next data set is Caco-2. In words: MTT anticancer activity, Caco-2. The format is cell-based, human. Particulars: for IC50: Homo sapiens, Caco-2, 72 h, MTT, mean ± SEM.
Text: as §1, §2, §3, §4, §5, §6, §7, §8
(§14) The anticancer effect of the above-mentioned compounds, in comparison with doxorubicin (Dox), was assayed using three human cancer cell lines. Colon cancer cell line (Caco-2) was cultured in DMEM (Lonza, USA) contained with 10 % FBS while liver cancer cell line (HepG-2) and triple-negative breast cancer cell line (MDA- MB 231) were cultured in RPMI-1640 (Lonza, U SA) supplemented with 10 % FBS. […] After 24h, serial concentrations (0.2-125 nM) of the tested compounds were incubated with three cancer cell lines for 72 h at 37 °C in a 5 % CO2 incubator. MTT method was done as described above. Plots of cancer cells viability (%) and growth inhibition (%) of the studied […]
as §9, §10, §11, §12, §13

In another data set the test system is MDA-MB 231. In words: MTT anticancer activity, MDA-MB 231. Type of data set: cell-based, human. Particulars: for IC50: Homo sapiens, MDA-MB 231, 72 h, MTT, mean ± SEM; for SI: ratio IC50 on normal cells (Wi-38) / IC50 on MDA-MB 231.
Text: as §1, §2, §3, §4, §5, §6, §7, §8, §14, §9, §10, §11, §12, §13

A further data set addresses T1, MMP-2 (Homo sapiens, UniProt P08253).
T1 construct: read from the 'ab' catalogue number) ab139446
In words: MMP-2 inhibitor screening kit (colorimetric). The format is biochemical. To be noted: in vitro MMP-2. The method, then: VEGFR-2 inhibition was detected by VEGFR-2 (KDR) Kinase Assay Kit-BPS Bioscience Corporation catalog # 40325 [107]. MMP-2 inhibitory activities were evaluated utilizing MMP-2 inhibitor screening kit (Colorimetric) catalog # ab139446 [108]. CA II inhibition assay was performed as reported. The protocols are detailed in the Supplementary Materials.
2.4. MMP-2 inhibitory activity assay […]
inhibitor screening kit (Colorimetric) catalog # ab139446 following the manufacturer’s instructions. The assay uses a thiopeptide as a chromogenic substrate. The MMP cleavage site peptide bond is replaced by a thioester bond in the thiopeptide. Hydrolysis of this bond by MMP-2 produces a sulfhydryl group, which reacts with Ellman’s reagent to form 2-nitr o-5-thiobenzoic acid that can be detected by its absorbance at 412 nm. The pr ocedure of MMP -2 inhibiti on assay is as foll owing
- Add test compounds and diluted enzyme solution to the microplate wells.
- Simultaneously establish the following control wells.
- Vehicle control contains MMP enzyme and vehicle used in delivering test compound (DMSO, concentration […]
- bring the total volume of all controls to 50 µL. Pre-incubate the plate for 10 min. at assay temperature to 37°C.
- Run the enzymatic reaction. […]
inhibited), which were calculated from dose-response curve obtained using eight tested concentrations of the inhibitor and carried out in duplicate. […]

Where [2] appears, read: ratio IC50 on normal cells (Wi-38) / IC50 on Caco-2.

Values joined by “and” are separate entries in the source; they are usually repeats but may differ in a detail not shown here. Equal values may be shown once. Read-outs that look alike come from different tables or passages of the source.

T1 sequence (P08253 110-446 limits assumed): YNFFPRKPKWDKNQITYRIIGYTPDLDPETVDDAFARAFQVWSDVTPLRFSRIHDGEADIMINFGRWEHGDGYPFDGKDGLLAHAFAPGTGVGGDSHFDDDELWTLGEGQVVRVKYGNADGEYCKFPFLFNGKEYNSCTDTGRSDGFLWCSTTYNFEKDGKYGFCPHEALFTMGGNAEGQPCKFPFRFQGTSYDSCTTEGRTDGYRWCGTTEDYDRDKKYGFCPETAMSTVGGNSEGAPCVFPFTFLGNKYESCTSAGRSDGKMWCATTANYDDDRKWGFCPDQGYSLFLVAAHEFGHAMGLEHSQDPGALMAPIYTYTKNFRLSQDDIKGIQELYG

For orientation: melting point means the temperature, or range, at which the solid turns liquid. As for `CC(=O)OC[C@@H](OC(C)=O)[C@@H](OC(C)=O)[C@H](OC(C)=O)[C@H](OC(C)=O)[C@@H]1N(C(C)=O)N(C(C)=O)c2nc(C)cc(=O)n21` [Compound 9, N^1,N^2-Diacetyl-3-(1,2,3,4,5-penta-O-acetyl-D-manno-pentitol-1-yl)-5-methyl-7-oxo-1,2,4-triazolo[4,3-a]pyrimidine], the melting point fell in the range of 100 to 102 °C.
The IC50 is the midpoint of a concentration-inhibition curve. A lower IC50 goes with inhibition by little substance. The compound `Cc1cc(=O)[nH]c(NN=C[C@H](O)[C@@H](O)[C@H](O)CO)n1` [Compound 2, D-Xylose-(6-methyl-4-oxo-2-pyrimidinyl)hydrazone] came in with a melting point of 215 to 216 °C. In the data set on HepG-2, the IC50 amounted to 3550 ± 35.5 nM and the SI was determined as 0.02. In data set [1], this compound had an IC50 of 92.86 ± 0.35 nM and an EC100 of 46.35 ± 1.35 nM. In the data set on Caco-2, this compound yielded an IC50 of 128 ± 1.48 nM. Further, the SI in the data set with Caco-2 (setting [2]) was 0.73. Moreover, in the data set on MDA-MB 231, the IC50 was 100 ± 2.99 nM and the SI is 0.93.
Consider `CC(=O)OCC(OC(C)=O)C(OC(C)=O)C(OC(C)=O)C(OC(C)=O)C1N(C(C)=O)N(C(C)=O)c2nc(C)cc(=O)n21` [Compound 7, N^1,N^2-Diacetyl-3-(1,2,3,4,5-penta-O-acetyl-D-galacto-pentitol-1-yl)-7-methyl-5-oxo-1,2,4-triazolo[4,3-a]pyrimidine], for which the melting point was in the range of 97 to 100 °C. Besides, in the data set on HepG-2, the half-maximal inhibitory concentration (IC50) is 3730 ± 252 nM and the SI turned out to be 0.23. Besides, in data set [1], inhibition was half-maximal at 872 ± 16.3 nM (IC50); the EC100 is 664.3 nM and 664.3 ± 26.60 nM. The compound further came in with an IC50 with Caco-2 of 47.44 ± 0.38 nM. The SI in the data set with Caco-2 (setting [2]) came out at 18.39. In addition, in the data set on MDA-MB 231, the IC50 is 39.99 ± 0.04 nM and the SI is on record as 21.82.
Regarding `Cc1cc(=O)[nH]c(NN=C[C@H](O)[C@@H](O)[C@H](O)[C@H](O)CO)n1` [Compound 3, D-Glucose-(6-methyl-4-oxo-2-pyrimidinyl)hydrazone], the melting point was 240 to 242 °C. Moreover, in the data set on HepG-2, it took 3490 ± 182 nM to reach half-maximal inhibition (IC50) and the SI was 0.05. In data set [1], this compound showed a half-inhibitory concentration (IC50) of 176 ± 4.14 nM and an EC100 of 84.54 ± 1.00 nM. For the same compound, half-maximal inhibition with Caco-2 (IC50) was put at 96.49 ± 0.09 nM. The SI in the data set on Caco-2 (setting [2]) was found to be 1.83. Besides, in the data set on MDA-MB 231, it took 75.8 ± 1.25 nM to reach half-maximal inhibition (IC50) and the SI was 2.33.
In turn, `CC(=O)OCC(OC(C)=O)C(OC(C)=O)C(OC(C)=O)C1N(C(C)=O)N(C(C)=O)c2nc(C)cc(=O)n21` [Compound 6, N^1,N^2-Diacetyl-3-(1,2,3,4-tetra-O-acetyl-D-xylo-tetritol-1-yl)-7-methyl-5-oxo-1,2,4-triazolo[4,3-a]pyrimidine] returned a melting point of 112 to 114 °C. Besides, in the data set on HepG-2, the midpoint of inhibition, the IC50, lay at 4628 ± 33 nM and the SI was found to be 0.13. Moreover, in data set [1], the IC50 stood at 587.1 ± 4.48 nM and the EC100 was found to be 353.7 ± 9.54 nM. In the data set on Caco-2, this compound came in with a half-inhibitory concentration (IC50) of 54.06 ± 0.47 nM. The SI with Caco-2 (setting [2]) is 10.86. In the data set with MDA-MB 231, 46.3 ± 3.32 nM corresponded to half-maximal inhibition (IC50) and the SI was 12.69.
In the case of `Cc1cc(=O)[nH]c(NN=C[C@@H](O)[C@@H](O)[C@H](O)[C@H](O)CO)n1` [Compound 4, D-Mannose-(6-methyl-4-oxo-2-pyrimidinyl)hydrazone], the melting point was in the range of 220 to 222 °C. For the same compound, in the data set on HepG-2, half-maximal inhibition (IC50) was put at 4940 ± 101 nM and the SI worked out at 0.03. In data set [1], this compound gave a half-inhibitory concentration (IC50) of 128 ± 2.96 nM and an EC100 of 64.61 ± 0.68 nM. The compound further gave a 50% inhibitory concentration (IC50) with Caco-2 of 108.1 ± 0.62 nM. Also, the SI in the data set with Caco-2 (setting [2]) is on record as 1.19. In addition, in the data set on MDA-MB 231, the midpoint of inhibition, the IC50, lay at 93.7 ± 2.69 nM and the SI turned out to be 1.37.
For the compound `COc1ccc(S(=O)(=O)N(CC(=O)NO)CC(C)C)cc1` [NNGH, N-Isobutyl-N-(4-methoxyphenylsulfonyl)glycyl hydroxamic acid], the IC50 against MMP-2 worked out at 298 ± 20.2 nM.
For `Cc1cc(=O)[nH]c(NN=C[C@H](O)[C@@H](O)[C@@H](O)[C@H](O)CO)n1` [Compound 5, D-Galactose-(6-methyl-4-oxo-2-pyrimidinyl)hydrazone], the melting point lay within 213 to 214 °C. Moreover, in the data set with HepG-2, 3820 ± 126 nM corresponded to half-maximal inhibition (IC50) and the SI worked out at 0.03. For the same compound, in data set [1], the half-inhibitory concentration (IC50) worked out at 102 ± 1.25 nM and the EC100 worked out at 48.16 ± 1.66 nM. The same compound came in with an IC50 with Caco-2 of 111 ± 2.94 nM. Also, the SI in the data set on Caco-2 (setting [2]) is on record as 0.92. Also, in the data set on MDA-MB 231, the IC50 was 83.3 ± 3.06 nM and the SI turned out to be 1.23.
Regarding `COc1cccc2c1C(=O)c1c(O)c3c(c(O)c1C2=O)C[C@@](O)(C(=O)CO)C[C@@H]3O[C@H]1C[C@H](N)[C@H](O)[C@H](C)O1` [Doxorubicin, doxorubicin, reference compound], the IC50 turned out to be 22.5 ± 10 nM in the data set with HepG-2, 30 ± 1 nM in data set [1], 48.3 ± 30 nM in the data set with Caco-2 and 10.6 ± 0.1 nM with MDA-MB 231. Further, the SI with HepG-2 was 1.33; in the data set on Caco-2 it was 0.62; with MDA-MB 231, 2.83. The EC100 in data set [1] was 11.50 ± 0.50 nM; in data set [1] (listed as Dox), 11.5 nM. Also, in data set [1] (Wi-38 at 30 nM, phase-contrast microscopy), the “morphological alteration of treated cells” value is on record as “morphological damage”.
